# Test results taken from US9586907B2, “Isothiocyanate compounds, pharmaceutical compositions, and uses thereof” (priority 2006, dated 2017).
# Read-outs that look alike come from different tables or passages of the source.
# Columns and labels:
# [1] = system: Staphylococcus epidermidis BK12798; test: MIC, Staphylococcus epidermidis BK12798; conditions: Staphylococcus epidermidis BK12798; Gram +; 24 hours of incubation
# [2] = system: Enterococcus sp., BK11936; test: MIC, Enterococcus sp., BK11936; conditions: Enterococcus sp., BK11936; Gram +; 24 hours of incubation
# Escherichia coli K12 = test: MIC, Escherichia coli K12; conditions: Escherichia coli K12; Gram −; 24 hours of incubation
# Bacillus cereus 4342 = test: MIC, Bacillus cereus 4342; conditions: Bacillus cereus 4342; Gram +; 24 hours of incubation
# [3] = system: Klebsiella pneumonii BK12261; test: MIC, Klebsiella pneumonii BK12261; conditions: Klebsiella pneumonii BK12261; Gram −; 24 hours of incubation
# Shigella sp., BK 12440 = test: MIC, Shigella sp., BK 12440; type: cell-based; conditions: Gram −, 24 hours of incubation
# [4] = system: Acinetobacter sp., BK12786; test: MIC, Acinetobacter sp., BK12786; conditions: Acinetobacter sp., BK12786; Gram −; 24 hours of incubation
# [5] = system: MRSA (Staphylococcus aureus) BK12064; test: MIC, MRSA BK12064; conditions: MRSA BK12064; Gram +; 24 hours of incubation
# [6] = system: Enterobacter cloacii BK12315; test: MIC, Enterobacter cloacii BK12315; conditions: Enterobacter cloacii BK12315; Gram −; 24 hours of incubation
# [7] = system: Bacillus subtilis BK11590; test: MIC, Bacillus subtilis BK11590; type: cell-based; conditions: Gram +, 24 hours of incubation
# [8] = system: Serattia marcescens BK12421; test: MIC, Serattia marcescens BK12421; conditions: Serattia marcescens BK12421; Gram −; 24 hours of incubation
# [9] = system: MRSA (Staphylococcus aureus) BK12060; test: MIC, MRSA BK12060; conditions: MRSA BK12060; Gram +; 24 hours of incubation
# [10] = system: Enterococcus sp., BK11940; test: MIC, Enterococcus sp., BK11940; conditions: Enterococcus sp., BK11940; Gram +; 24 hours of incubation
# [11] = system: Klebsiella pneumonii BK12260; test: MIC, Klebsiella pneumonii BK12260; conditions: Klebsiella pneumonii BK12260; Gram −; 24 hours of incubation
# [12] = system: Pseudomonas aeruginosa BK12347; test: MIC, Pseudomonas aeruginosa BK12347; conditions: Pseudomonas aeruginosa BK12347; Gram −; 24 hours of incubation
# [13] = system: Staphylococcus epidermidis BK12799; test: MIC, Staphylococcus epidermidis BK12799; conditions: Staphylococcus epidermidis BK12799; Gram +; 24 hours of incubation
# Escherichia coli BK12336 = test: MIC, Escherichia coli BK12336; conditions: Escherichia coli BK12336; Gram −; 24 hours of incubation
# [14] = system: Pseudomonas aeruginosa BK12348; test: MIC, Pseudomonas aeruginosa BK12348; conditions: Pseudomonas aeruginosa BK12348; Gram −; 24 hours of incubation
# Shigella sp., BK 12441 = test: MIC, Shigella sp., BK 12441; type: cell-based; conditions: Gram −, 24 hours of incubation
# [15] = system: Serattia marcescens BK12426; test: MIC, Serattia marcescens BK12426; conditions: Serattia marcescens BK12426; Gram −; 24 hours of incubation
# [16] = system: Acinetobacter sp., BK12787; test: MIC, Acinetobacter sp., BK12787; conditions: Acinetobacter sp., BK12787; Gram −; 24 hours of incubation
# [17] = system: Enterobacter cloacii BK12313; test: MIC, Enterobacter cloacii BK12313; conditions: Enterobacter cloacii BK12313; Gram −; 24 hours of incubation
# M. avium = test: MIC, M. avium; type: cell-based
# M. cansassi = test: MIC, M. cansassi; type: cell-based
# M. bovis BCG = test: microbe, parasite or virus in culture; type: cell-based
# M. tuberculosis AB = test: MIC, M. tuberculosis AB; type: cell-based
# Description: (§1) Next, several of the bifunctional ITC compounds were tested for their ability to inhibit the growth of some clinical isolates of Mycobacteria, the results of which are summarized in Table 3 below.
# M. tuberculosis H37Rv = test: MIC, M. tuberculosis H37Rv; type: cell-based
# Description: as §1
# M. tuberculosis W4 = test: MIC, M. tuberculosis W4; type: cell-based
# Description: as §1
# M. tuberculosis P = test: MIC, M. tuberculosis P; type: cell-based
# Description: as §1
# M. intracellularie = test: MIC, M. intracellularie; type: cell-based
# M. fortuitum = test: MIC, M. fortuitum; type: cell-based
# M. tuberculosis W = test: MIC, M. tuberculosis W; type: cell-based
# Description: as §1
# M. scrofulaceum = test: MIC, M. scrofulaceum; type: cell-based
# M. tuberculosis 210 = test: MIC, M. tuberculosis 210; type: cell-based
# Description: as §1
# M. tuberculosis CDC1551 = test: MIC, M. tuberculosis CDC1551; type: cell-based
# Description: as §1
# [18] = system: clinical isolates of bacteria and fungus (including yeasts); test: General antimicrobial activity, semi-quantitative score on collection of clinical isolates; type: cell-based; conditions: for antimicrobial / growth-inhibitory activity (in words): Table 1 screen; as to General antimicrobial activity: key: −: indicating no activity; +++++: indicating highest activity
# Description: The growth inhibitory effect of a number of various ITC compounds were tested on large collection of clinical isolates of bacteria and fungus (including yeasts), in order to establish a systematic structure-activity relationship for the ITC compounds. […] To assess the average activity for an individual ITC compound, the semi-quantitative score was calculated for each compound based on the number of sensitive bacterial strains at concentrations of 100 and 200 μM.
# Candida dlabrata 250^mdr = test: Anti-fungal MIC, Candida dlabrata 250^mdr; conditions: Candida, read-out: Anti-Fungal Activity (MIC)
# [19] = system: Aspergillus fumigatus Rit 1; test: Anti-fungal MIC, Aspergillus fumigatus Rit 1; conditions: Aspergillus fumigatus, RIT1, read-out: Anti-Fungal Activity (MIC)
# Candida crusei 6258^mdr = test: microbe, parasite or virus in culture; conditions: read-out: Anti-Fungal Activity (MIC)
# Candida albicans 90028 = test: Anti-fungal MIC, Candida albicans 90028; conditions: Candida albicans, 90028, read-out: Anti-Fungal Activity (MIC)
# Candida albicans 90030 = test: Anti-fungal MIC, Candida albicans 90030; conditions: Candida albicans, 90030, read-out: Anti-Fungal Activity (MIC)
# [20] = system: Aspergillus fumigatus Rit 21; test: Anti-fungal MIC, Aspergillus fumigatus Rit 21; conditions: Aspergillus fumigatus, RIT21, read-out: Anti-Fungal Activity (MIC)
# [21] = system: Aspergillus fumigatus Rit 11; test: Anti-fungal MIC, Aspergillus fumigatus Rit 11; conditions: Aspergillus fumigatus, RIT11, read-out: Anti-Fungal Activity (MIC)
# [22] = system: Candida albicans 5108^mdr; test: Anti-fungal MIC, Candida albicans 5108^mdr; conditions: Candida albicans, read-out: Anti-Fungal Activity (MIC)
# [23] = system: Candida parapsilosis 22019; test: Anti-fungal MIC, Candida parapsilosis 22019; conditions: 22019, read-out: Anti-Fungal Activity (MIC)
# [24] = system: Cryptococcus neoformans CNH99; test: Anti-fungal MIC, Cryptococcus neoformans CNH99; conditions: Cryptococcus neoformans, CNH99, read-out: Anti-Fungal Activity (MIC)
# [25] = Mycobacterium tuberculosis, read-out: MIC
smiles,measurement,setting,value
"OCCCCCCCN=C=S [Compound 44, HO—(CH2)7—N═C═S]",MIC,[1],8 µg/mL
same,MIC,[2],32 µg/mL
same,MIC,Escherichia coli K12,>64 µg/mL
same,MIC,Bacillus cereus 4342,8 µg/mL
same,MIC,[3],>64 µg/mL
same,MIC,"Shigella sp., BK 12440",64 µg/mL
same,MIC,[4],64 µg/mL
same,MIC,[5],16 µg/mL
same,MIC,[6],>64 µg/mL
same,MIC,[7],4 µg/mL
same,MIC,[8],>64 µg/mL
same,MIC,[9],8 µg/mL
same,MIC,[10],32 µg/mL
same,MIC,[11],>64 µg/mL
same,MIC,[12],>64 µg/mL
same,MIC,[13],8 µg/mL
same,MIC,Escherichia coli BK12336,>64 µg/mL
same,MIC,[14],>64 µg/mL
same,MIC,"Shigella sp., BK 12441",64 µg/mL
same,MIC,[15],>64 µg/mL
same,MIC,[16],64 µg/mL
same,MIC,[17],>64 µg/mL
"CO[C@H]1/C=C/O[C@@]2(C)Oc3c(C)c(O)c4c(O)c(c(/C=N/N5CCN(C)CC5)c(O)c4c3C2=O)NC(=O)/C(C)=C\C=C\[C@H](C)[C@H](O)[C@@H](C)[C@@H](O)[C@@H](C)[C@H](OC(C)=O)[C@@H]1C [Rif, Rifampicin, reference compound]",MIC,M. avium; Mycobacterium avium,0.5 µg/mL
same,MIC,M. cansassi,0.5 µg/mL
same,MIC,"M. bovis BCG; Mycobacterium tuberculosis variant bovis BCG, BCG",0.5 µg/mL
same,MIC,M. tuberculosis AB; [25],0.5 µg/mL
same,MIC,M. tuberculosis H37Rv; [25],0.5 µg/mL
same,MIC,M. tuberculosis W4; [25],0.5 µg/mL
same,MIC,M. tuberculosis P; [25],> 4 µg/mL
same,MIC,M. intracellularie,0.5 µg/mL
same,MIC,M. fortuitum; Mycolicibacterium fortuitum,> 4 µg/mL
same,MIC,M. tuberculosis W; [25],> 4 µg/mL
same,MIC,M. scrofulaceum; Mycobacterium scrofulaceum,0.5 µg/mL
same,MIC,M. tuberculosis 210; [25],0.5 µg/mL
same,MIC,M. tuberculosis CDC1551; [25],0.5 µg/mL
"O=C(O)c1cc(N=C=S)ccc1-c1c2ccc(O)cc2cc2cc(O)ccc12 [Compound 14, reference compound]",antimicrobial / growth-inhibitory activity (in words),[18],poor growth-inhibitory activity
"O=C=NCc1ccccc1 [Compound 23, reference compound]",antimicrobial / growth-inhibitory activity (in words),[18],Neither of the chemically related derivatives—isocyanate (Compound 23) or thiocyanate (Compound 25)—displayed any activity
same,General antimicrobial activity,"[18]; semi-quantitative score from number of sensitive bacterial strains at 100 and 200 μM, deduced from number of sensitive bacterial species and average MIC",−
"S=C=NCCCCCCN=C=S [Compound 40, S═C═N—(CH2)6—N═C═S]",MIC,M. avium; M. avium,32 µg/mL
same,MIC,M. cansassi; M. cansassi,8 µg/mL
same,MIC,M. bovis BCG,2 µg/mL
same,MIC,M. tuberculosis AB,4 µg/mL
same,MIC,M. tuberculosis H37Rv,2 µg/mL
same,MIC,M. tuberculosis W4,2 µg/mL
same,MIC,M. tuberculosis P,2 µg/mL
same,MIC,M. intracellularie; M. intracellularie,32 µg/mL
same,MIC,M. fortuitum; M. fortuitum,16 µg/mL
same,MIC,M. tuberculosis W,0.5 µg/mL
same,MIC,M. scrofulaceum; M. scrofulaceum,32 µg/mL
same,MIC,M. tuberculosis 210,2 µg/mL
same,MIC,M. tuberculosis CDC1551,4 µg/mL
"OC(Cn1cncn1)(Cn1cncn1)c1ccc(F)cc1F [Fluc, Fluconazol, reference compound]",MIC,Candida dlabrata 250^mdr,> 64 µg/mL
same,MIC,[19],> 64 µg/mL
same,MIC,Candida crusei 6258^mdr,32 µg/mL
same,MIC,Candida albicans 90028,0.25 µg/mL
same,MIC,Candida albicans 90030,4 µg/mL
same,MIC,[20],> 64 µg/mL
same,MIC,[21],> 64 µg/mL
same,MIC,[22],32 µg/mL
same,MIC,[23],2 µg/mL
same,MIC,[24],4 µg/mL
"CCCCN=C=S [Compound 7, CH3CH2CH2CH2—N═C═S, reference compound]",antimicrobial / growth-inhibitory activity (in words),[18],very little activity
"C=CCN=C=S [Compound 22, CH2═CH2CH2—N═C═S, reference compound]",antimicrobial / growth-inhibitory activity (in words),[18],very little activity
S=C=NCC12CC3CC(CC(C3)C1)C2 [Compound 35],antimicrobial / growth-inhibitory activity (in words),[18],poor growth-inhibitory activity
"CN=C=S [Compound 8, CH3—N═C═S, reference compound]",antimicrobial / growth-inhibitory activity (in words),[18],very little activity
